Experimental data: patent US9598448B2, “Osmium (II) arene imino anti-cancer complexes” (University of Warwick, priority 2010, dated 2017)
“Also recorded” adds a separate entry of the source. Like-named read-outs stand apart in the source and are kept apart here.

Columns and labels:
[1] = system: human ovarian A2780 cancer cells; experiment: SRB growth inhibition assay, A2780; assay type: cell-based
Method: The concentrations of the osmium complexes that inhibit 50% of the proliferation of human ovarian A2780 cancer cells were determined by sulforhodamine B test. A2780 cells were seeded in 96-well plate (Falcon) at 5000 cells/well, after the incubation for 48 h, The complexes were solubilised in DMSO (Sigma) to provide 10 mM stocks. The stocks were serially diluted by cell culture media to give concentrations four-fold than the final concentrations for the assay. The dilutions of complexes in cell culture media were added to the 96-well plate with cells in triplicates to achieve the final concentrations. The final DMSO concentration in each well was no more than 1% (v/v). The complexes were removed after 24 h. The cells were washed with Phosphate Buffered Saline once and cell culture media was added 150 μL/well. The cells were recovered for 72 h. The surviving cells were fixed by adding 150 μL/well of 50% (w/v) trichloroacetic acid and incubated for 1 h at 277 K (277 K). The plates were washed with tap water three times and dried under a flow of warm air, 0.4% sulforhodamine B (Sigma) solution 100 μL/well followed by washing with 1% acetic acid five times and dried under a flow of warm air. The dye was dissolved in 10 mM Tris buffer […] The absorbance of each well was obtained by the Multiskan Ascent plate reader (Labsystems) at 540 nm. The absorbance value of SRB in each well is directly proportional to the cell number. Then the absorbance can be plotted against concentration and the IC50 determined by using Origin software.
The cytotoxicity studies were carried out as described previously above.

tubulin = experiment: Tubulin polymerization assay; assay type: biochemical; settings: 37° C., 60 min; for Inhibition of Tubulin Polimerziation: Osmium Compounds at 10 μM
Method: To follow the anticancer mechanism indicated by COMPARE, We have investigated whether osmium complexes can interacted directly with tubulin.
A Cytoskeleton tubulin polymerization assay kit (catalog no BK004) was used in the tubulin polymerization study. Briefly, 10 μL of general tubulin buffer (80 mM PIPES, pH 6.9, 2 mM MgCl2, and 0.5 mM EGTA) containing osmium compound, colchicine or taxol was pipetted into the prewarmed 96 well microplate. Tubulin (defrosted to room temperature from −80° C. and then placed on ice before use) was diluted with tubulin polymerization buffer with 1 mM GTP to a final concentration of 4 mg mL^−1. Diluted tubulin (100 μL) was added into the wells containing osmium compound, colchicine or taxol. Diluted tubulin (100 μL) mixed with general tubulin buffer (10 μL) served as control. The absorbance at 340 nm was read immediately with a Tecan microplate reader.

[2] = Stability and hydrolysis (1H NMR, MS, UV-vis); assay type: physicochemical; settings: 310 K, 24 h, 95% deuterated phosphate buffer (10 mM)/5% MeOD-d4
[3] = system: A2780/cis ovarian (cisplatin-resistant); experiment: MTT growth inhibition assay, A2780/cis; assay type: cell-based, human; settings: 96 h
Method: (§1) Tumor cell growth inhibition was assessed using the MTT assay.^13 2×10^3 cells were inoculated into a 96-well plate and incubated overnight at 37° C. in a humidified atmosphere containing 5% CO2. Complexes were solubilised in DMSO as above, and then diluted in complete cell culture medium to give a broad range of concentrations. Cisplatin was included in the screen as a comparator. Medium was removed from each well and replaced with complex or control solutions, and the plates then incubated for a further 96 hours. After 96 h culture medium was removed and 200 μL of 0.5 mg mL^−1 MTT solution (Sigma) in complete medium added to each well. Following further 4 h incubation, the solution was removed from each well and 150 μL of DMSO (Sigma) added to solubilise the formazan crystals resulting from MTT conversion. Absorbance values for the resulting solutions were read at 550 nm on a microplate reader and cell survival calculated as the absorbance of treated cells divided by the control. Results were expressed in terms of IC50 values (i.e. concentration of compound required to kill 50% of cells) and all experiments were performed in triplicate.
(§2) The following human cancer cell lines were cultured in RPMI 1640 cell culture medium supplemented with 1 mM sodium pyruvate, 2 mM L-glutamine and 10% fetal bovine serum (all from Sigma): A549 non-small cell lung, HCT-116 colon, MCF-7 breast, PC-3 prostate (all from LGC Promochem, Teddington, UK), A2780/cis ovarian (cisplatin-resistant) and RT-112 bladder (both from ECACC, Salisbury, UK).

A549 non-small cell lung = experiment: MTT growth inhibition assay, A549; assay type: cell-based, human; settings: 96 h
Method: as §1, §2

HCT-116 colon = experiment: MTT growth inhibition assay, HCT-116; assay type: cell-based, human; settings: 96 h
Method: as §1, §2

MCF-7 breast = experiment: MTT growth inhibition assay, MCF-7; assay type: cell-based, human; settings: 96 h
Method: as §1, §2

PC-3 prostate = experiment: MTT growth inhibition assay, PC-3; assay type: cell-based, human; settings: 96 h
Method: as §1, §2

RT-112 bladder = experiment: MTT growth inhibition assay, RT-112; assay type: cell-based, human; settings: for IC50: MTT, 96 h
Method: as §1, §2

A2780 cells = experiment: N-acetyl-L-cysteine (NAC) treatment, cell viability by SRB; assay type: cell-based, human; settings: pretreated with 5 mM NAC for 2 h; 1.2-1.8× IC50 (2.5× for cisplatin)
Method: Then NAC and osmium complexes were removed at the same time and washed with PBS once, the cells were incubate for 72 h for recovery. The cell viability was tested by SRB test same as used for IC50 test.

[4] = system: human A549 lung cancer cells; settings: cited from earlier work; for activity towards human A549 lung cancer cells: up to concentrations of 100 μM
[5] = system: Balb/c immunodeficient nude mice bearing HCT-116 tumours; experiment: Evaluation of in vivo toxicity in nude mouse HCT-116 xenograft model; settings: i.v. day 0, doses from 2 up to 40 mg kg^−1, monitored 15 days
Method: Female Balb/c immunodeficient nude mice (Harlan, Loughborough, UK) aged 6-12 weeks were used. Mice received Harlan 2018 diet (Harlan) and water ad libitum. Mice were kept in cages in an air-conditioned room with regular alternating cycles of light and darkness. All animal procedures were carried out under a project license issued by the UK Home Office and UKCCCR guidelines (Workman P, Twentyman P, Balkwill F et al: United Kingdom Co-ordinating Committee on Cancer Research (UKCCCR) Guidelines for the Welfare of Animals in Experimental Neoplasia (Second Edition). Br J Cancer 77: 1-10, 1998) were followed throughout.
HCT-116 was used in the study. Tumours were excised from a donor animal, placed in sterile physiological saline containing antibiotics and cut into small fragments of approximately 2 mm^3. Under brief general inhalation anaesthesia, fragments were implanted in the […] abdominal flank of each mouse using a trocar. Once the tumours could accurately be measured using callipers (mean tumour volume of approximately 50 mm^3), treatment commenced. Complexes 3 and 6 were solubilised in 10% DMSO; 5% Tween-80; 85% saline and were administered intravenously to groups of 2 mice on day 0. Animals were weighed frequently and monitored for any deleterious effects over a period of 15 days.

pKa of hydroxyl group = assay type: physicochemical
[6] = system: human tumor 60-cell line panel; settings: Data from NCI/DTP screening: October 2009, 48 h incubation; cited from earlier work
[7] = system: HCT-116 colon adenocarcinoma s.c. xenograft model; experiment: In vivo efficacy in HCT-116 s.c. xenograft model; settings: 8.0 mg kg^−1
[8] = cited from earlier work
[9] = SRB, 24 h exposure, 72 h recovery, read-out: IC50 to A2780 cell line
[10] = A2780 human ovarian cancer cells, read-out: IC50 values against A2780
[11] = SRB, 24 h exposure, 72 h recovery, read-out: IC50 values for azopyridine complexes against A2780 ovarian cancer cells
[12] = SRB, 24 h exposure, 72 h recovery, read-out: IC50 values for iminopyridine complexes against A2780 ovarian cancer cells

## [Os(η^6-p-cym)(abpy))I]PF6 [FY043]
[1]; [9]
  IC50: 10800 nM

## [Os(η^6-p-cym)(pp-OH)Cl]PF6 [FY119]
[1]; [9]
  IC50: 5500 nM

## [Os(η^6-bip)(1-CF3-4-Cl-Azpy)I]PF6 [FY107]
[1]; [9]
  IC50: 5700 nM
tubulin
  Inhibition of Tubulin Polimerziation: 13.0%

## CN(C)c1ccc(N=Nc2ccccn2)cc1.F[P-](F)(F)(F)(F)F.[I-].[Os+2].c1ccc(-c2ccccc2)cc1 [Complex 5, [(η^6-bip)Os(azpy-NMe2)I]PF6]
[1]; [10]
  IC50: 140 nM

## [Os(η^6-bip)(3-Cl-Azpy)I]PF6 [FY052]
[1]; [9]
  IC50: 22000 nM

## [(η^6-bip)Os(Azpy)Cl]PF6 [Complex 7]
[1]; [11]
  IC50: 13900 nM

## [(η^6-p-cym)Os(Azpy)Cl]PF6 [Complex 8]
[1]; [10]
  IC50: > 50000 nM
[1]; [11]
  IC50: > 50000 nM
[2]
  stability and hydrolysis in aqueous solution: disappearance of the peaks corresponding to the azopyridine ligand

## [(η^6-p-cym)Os(Azpy-NMe2)Cl]PF6 [Complex 12]
[1]; [11]
  IC50: 1800 nM
[3]
  IC50: 1800 nM
A549 non-small cell lung
  IC50: 5.2 µM
HCT-116 colon
  IC50: 900 nM
MCF-7 breast
  IC50: 1100 nM
PC-3 prostate
  IC50: 6.8 µM
RT-112 bladder
  IC50: 2200 nM
A2780 cells
  cell growth restored after NAC pretreatment: only a small effect on restoring growth
[2]
  stability and hydrolysis in aqueous solution: remained stable and did not hydrolyze
[4]
  cytotoxicity against the A549 cancer cell line: did not show significant cytotoxicity
  activity towards human A549 lung cancer cells: No activity

## [Os(η^6-p-cym)(OH-Azpy-NO2)I]PF6 [FY036]
[1]; [9]
  IC50: 290 nM

## [(η^6-bip)Os(Azpy-O)I].0.5H2O [3*]
[1]; [10]
  IC50: 140 nM
[3]
  IC50: < 300 nM
A549 non-small cell lung
  IC50: 0.4 µM
HCT-116 colon
  IC50: < 300 nM
MCF-7 breast
  IC50: 250 nM
PC-3 prostate
  IC50: < 0.3 µM
RT-112 bladder
  IC50: 400 nM
RT-112 bladder; RT-112
  difference in potency to cisplatin, RT-112: 3 fold
[5]
  toxicity / deleterious effects: no evident toxicity; also recorded: negligible deleterious effects
pKa of hydroxyl group
  pKa of the hydroxyl group: less than 7

## [Os(η^6-p-cym)(1-Cl-Azpy)I]PF6 [FY112]
[1]; [9]
  IC50: 9000 nM

## [Os(η^6-bip)(pp-OH)Cl]PF6 [FY150]
[1]; [9]
  IC50: 2400 nM

## [Os(η^6-p-cym)(OH-Azpy-NO2)Cl]PF6 [FY033]
[1]; [9]
  IC50: 300 nM

## Cc1ccc(C(C)C)cc1.F[P-](F)(F)(F)(F)F.[I-].[Os+2].c1ccc(N=Nc2ccccn2)cc1 [Complex 2, [(η^6-p-cym)Os(Azpy)I]PF6]
[1]; [11]
  IC50: 10200 nM

## [Os(η^6-bip)(pp-NMe2)I]PF6 [FY012]
[1]; [9]
  IC50: 140 nM

## N.N.[Cl][Pt][Cl] [Cisplatin, reference compound]
[1]; [11]
  IC50: 2000 nM
[1]; [12]
  IC50: 2000 nM
[3]
  IC50: 4000 nM
A549 non-small cell lung
  IC50: 4.1 µM
HCT-116 colon
  IC50: 2600 nM
MCF-7 breast
  IC50: 3000 nM
PC-3 prostate
  IC50: 21.5 µM
RT-112 bladder
  IC50: 1400 nM
[6]
  GI50: 10.3 µM
  TGI: 50.7 µM
[7]
  Maximum % weight loss: 8%
  Median tumour doubling time: 6.4 days
  day of maximum % weight loss: 6 days

## [Os(η^6-bip)(2-Cl-Azpy)I]PF6 [FY078]
[1]; [9]
  IC50: 1000 nM

## [(η^6-p-cym)Os(pp-NMe2)Cl]PF6 [Complex 16]
[1]; [12]
  IC50: 3500 nM

## Cc1ccc(C(C)C)cc1.F[P-](F)(F)(F)(F)F.Oc1ccc(N=Nc2ccccn2)cc1.[I-].[Os+2] [Complex 4, [(η^6-p-cym)Os(Azpy-OH)I]PF6]
[1]; [11]
  IC50: 300 nM

## [(η^6-bip)Os(pp)I]PF6 [Complex 14]
[1]; [12]
  IC50: 18600 nM

## [Os(η^6-bip)(pp)Cl]PF6 [FY098]
[1]; [9]
  IC50: 4600 nM

## F[P-](F)(F)(F)(F)F.[I-].[Os+2].c1ccc(-c2ccccc2)cc1.c1ccc(N=Nc2ccccn2)cc1 [Complex 1, [(η^6-bip)Os(Azpy)I]PF6]
[1]; [11]
  IC50: 5400 nM

## [Os(η^6-bip)(pp-NMe2)Cl]PF6 [FY093]
[1]; [9]
  IC50: 440 nM

## [(η^6-bip)Os(azpy-OH)Cl]PF6 [Complex 9]
[1]; [11]
  IC50: 800 nM

## [Os(η^6-bip)(1-Cl-azpy)I]PF6 [FY110]
[1]; [9]
  IC50: 3700 nM
tubulin
  Inhibition of Tubulin Polimerziation: 11.4%

## [Os(η^6-bip)(2-I-Azpy)I]PF6 [FY070]
[1]; [9]
  IC50: 220 nM

## [(η^6-p-cym)Os(pp-NMe2)I]PF6 [Complex 13]
[1]; [12]
  IC50: 400 nM

## [(η^6-p-cym)Os(Azpy-OH)Cl]PF6 [Complex 10]
[1]; [11]
  IC50: 1300 nM

## [Os(η^6-p-cym)(2-I-Azpy)I]PF6 [FY067]
[1]; [9]
  IC50: 2400 nM

## [Os(η^6-bip)(2-F-Azpy)I]PF6 [FY069]
[1]; [9]
  IC50: 630 nM
tubulin
  Inhibition of Tubulin Polimerziation: 21.0%
tubulin; purified tubulin
  IC50: ~20 µM
  effect on amount of tubulin polymerized: reduced the amount of tubulin polymerized in a dose-dependent manner

## CN(C)c1ccc(N=Nc2ccccn2)cc1.F[P-](F)(F)(F)(F)F.[Cl-].[Os+2].c1ccc(-c2ccccc2)cc1 [Complex 11, [(η^6-bip)Os(azpy-NMe2)Cl]PF6]
[1]; [11]
  IC50: 3900 nM
[4]
  cytotoxicity against the A549 cancer cell line: did not show significant cytotoxicity
  activity towards human A549 lung cancer cells: No activity
[8]; listed as 11
  solubility (in water / under test conditions), earlier report: low solubility
[8]; listed as [(η^6-bip)Os(Azpy-NMe2)Cl]PF6
  solubility (in water / under test conditions), earlier report: poor solubility in water

## [(η^6-p-cym)Os(pp)Cl]PF6 [Complex 15]
[1]; [12]
  IC50: 26200 nM

## [Os(η^6-bip)(2-Br-Azpy)I]PF6 [FY061]
[1]; [9]
  IC50: 590 nM
